{
  "source": "paper PMC9176662",
  "about": "“Design, synthesis, molecular modeling and biological evaluation of novel Benzoxazole-Benzamide conjugates via a 2-Thioacetamido linker as potential anti-proliferative agents, VEGFR-2 inhibitors and apoptotic inducers” (Journal of Enzyme Inhibition and Medicinal Chemistry, 2022)",
  "key": {"[1]": {"tested_on": "MCF-7 cells", "assay": "Anti-proliferative activity, SRB assay, MCF-7", "type": "cell-based, human", "conditions": "for IC50: SRB assay, 72 h exposure, mean ± SD of three separate experiments; for MCF-7 SI (selectivity index): ratio of IC50 for normal cells (WI-38) to IC50 for MCF-7", "text": "(§1) Several of these derivatives were reported as acting as competitive inhibitors of different tyrosine kinases, with potent cytotoxic activity against various cell lines[58]^,[59]. […] Thus, in this study a novel series of benzoxazole-benzamide conjugates was initially evaluated for their potential anti-cancer activity against colon cancer cell line (HCT-116), breast cancer cell line (MCF-7) and normal human fibroblasts (WI-38), using the Sulforhodamine B colorimetric (SRB) assay.\n(§2) 2.1. Anti-proliferative activity against HCT-116 and MCF-7 human cancer cells lines.\n(§3) The sulforhodamine B (SRB) assays were performed according to Skehan et al..\n(§4) Briefly, exponentially growing cells were trypsinized, counted and seeded at the appropriate densities (5000 cells/100 μL/ well) into 96-well microtiter plates. Cells were incubated in a humidified atmosphere at 37 °C for 24 h. Then, the cells were exposed to the tested compounds at the desired concentrations (0.01, 0.1, 1, 10, and 100 μM) or to 1% dimethyl sulfoxide (DMSO) for 72 h. At the end of the treatment period, the media were removed, and the cells were fixed with 10% trichloroacetic acid at 4 °C for 1 h. Following, the cells were washed with tap water four times and incubated with SRB 0.4% for 30 min. Excess dye was removed by washing repeatedly with 1% (vol/vol) acetic acid. The protein-bound dye was dissolved in 10 mM Tris base solution for (optical density) OD determination at 510 nm using a Spectra Max plus Microplate Reader (Molecular Devices, CA). Cell viability was expressed relative to the untreated control cells. […]"}, "[2]": {"tested_on": "WI-38 cells", "assay": "Cytotoxicity against normal fibroblasts, SRB assay, WI-38", "type": "cell-based", "conditions": "normal human fibroblasts, 72 h, mean ± SD of three separate experiments", "text": "as §1, §2, §3, §4"}, "[3]": {"tested_on": "MCF-7 cells", "assay": "Annexin V-FITC/PI apoptosis assay, MCF-7", "type": "cell-based, human", "conditions": "for %Apoptosis %Early: control 0.47; for %Apoptosis %Late: control 1.34; for %Necrosis: control 1.6; for %Apoptosis %Total: control 3.41", "procedure": "2.4. Annexin V-FITC/PI apoptosis assay.\nFor this study, annexin V-FITC / PI apoptosis detection kit was used; HCT -116 and MCF-7 cells were stained with annexin V fluorescein isothiocyanate (FITC) and propidium iodide (PI) counter-stained.1 x 10^5 HCT-116 cells were 48 h incubated with compound 1 or 11, trypsinized, washed with phosphate-buffered saline (PBS), stained in the dark at 37 °C for 15 min utes.\nFinally, the cells analyzed with a cytometer of FACS Caliber flow."}, "[4]": {"tested_on": "Bcl-2", "assay": "Western blot of Bcl-2 expression in HCT-116", "type": "cell-based, human", "conditions": "HCT-116, Western blot, normalised to β-actin", "text": "It is well known that the anti-apoptotic proteins Bcl-2 and Bcl-xL are mainly overexpressed in various types of cancer, causing survival of cancer cells and/or drug resistance. Therefore, inhibition of these proteins expression leads to cancer cell death and has been used as a strategy for anticancer drug development. In this study, the impact of compounds 1 and 11 on Bcl-2 and Bcl-xL expression in HCT-116 and MCF-7 cancer cell lines was examined using Western blot analysis and all the data were normalised to β-actin (Figure 9).\n2.5. Impact of compounds 1 and 11 on the level of anti-apoptotic markers (Bcl-2, and Bcl-xL).\nGel electrophoresis and immuno-blot analysis of proteins (Western Blot) method was used to examine the effect of compounds 1 and 11 on the level of anti-apoptotic markers (Bcl-2, and Bcl-xL). […]\nThe cells were then immediately frozen at −20 °C for 1 h for further lysis and collected by cell scraper and sonicated 2×10s. Total protein concentrations were determined colorimetrically using Bradford method before proceeding to the western blotting. […] Briefly, the membranes were incubated for 1 min with a mixture of equal volumes from ECL solution A and ECL solution B. The chemiluminescent signals were captured using a CCD camera-based imager (Chemi Doc imager, Biorad, USA), and the band intensities were then measured with β-actin as an internal reference protein. […]"}},
  "data": [
    {"molecule": "O=C(CSc1nc2cc(Cl)ccc2o1)Nc1ccc(C(=O)Nc2ccc(Cl)cc2)cc1", "note": "[Compound 11]", "values": [
      {"measurement": "IC50", "setting": "[1]; Homo sapiens, MCF7, 72 h", "result": "16.6 ± 0.013", "unit": "µM"},
      {"measurement": "MCF-7 SI (selectivity index)", "setting": "[1]", "result": 6.2},
      {"measurement": "IC50", "setting": "[2]", "result": "103.5 ± 0.7", "unit": "µM"},
      {"measurement": "total increase in apoptosis compared to the control", "setting": "[3]", "result": "~5.0", "unit": "fold"},
      {"measurement": "%Apoptosis %Early", "setting": "[3]", "result": 4.93, "unit": "%"},
      {"measurement": "%Apoptosis %Late", "setting": "[3]", "result": 10.26, "unit": "%"},
      {"measurement": "%Necrosis", "setting": "[3]", "result": 1.74, "unit": "%"},
      {"measurement": "%Apoptosis %Total", "setting": "[3]", "result": 16.93, "unit": "%"},
      {"measurement": "Bcl-2 expression", "setting": "[4]", "result": "inhibited"}
    ]},
    {"molecule": "O=C(CSc1nc2ccccc2o1)Nc1ccc(C(=O)NC2CCCCC2)cc1", "note": "[Compound 1]", "values": [
      {"measurement": "IC50", "setting": "[1]; Homo sapiens, MCF7, 72 h", "result": "7.8 ± 0.015", "unit": "µM"},
      {"measurement": "IC50", "setting": "[1]", "result": "7.2 ± 0.01", "unit": "µM"},
      {"measurement": "MCF-7 SI (selectivity index)", "setting": "[1]", "result": 5.8},
      {"measurement": "IC50", "setting": "[2]", "result": "41.9 ± 0.27", "unit": "µM"},
      {"measurement": "total increase in apoptosis compared to the control", "setting": "[3]", "result": "approximately 5.8 fold"},
      {"measurement": "%Apoptosis %Early", "setting": "[3]", "result": 6.02, "unit": "%"},
      {"measurement": "%Apoptosis %Late", "setting": "[3]", "result": 12.17, "unit": "%"},
      {"measurement": "%Necrosis", "setting": "[3]", "result": 1.59, "unit": "%"},
      {"measurement": "%Apoptosis %Total", "setting": "[3]", "result": 19.78, "unit": "%"},
      {"measurement": "Bcl-2 expression", "setting": "[4]", "result": "inhibited"}
    ]}
  ]
}
